Columns and labels:
Test in all cases: relative viability (nuclei count vs DMSO), 5 days (fraction); higher = more cells survive
Idelalisib + Linsitinib = compound: CC[C@H](Nc1ncnc2[nH]cnc12)c1nc2cccc(F)c2c(=O)n1-c1ccccc1 [Idelalisib] + C[C@]1(O)C[C@@H](c2nc(-c3ccc4ccc(-c5ccccc5)nc4c3)c3c(N)nccn32)C1 [Linsitinib] (partner 1 µM)
In short: (§1)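 Relative viability divides the nuclei count in treated wells by that in vehicle wells. Lung cancer cell lines were seeded in 1536-well plates, dosed by pin tool the next day, and fixed and stained after 5 days in one step with final 0.05% Triton X-100, 1% formaldehyde and 1 ug/ml Hoechst. Dosing was a single drug or a fixed anchor-drug dose plus five library-drug doses (not always all listed) in √10 steps, and values are medians of duplicate plates imaged at 4×.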

Pemetrexed + Lapatinib = compound: Nc1nc2[nH]cc(CCc3ccc(C(=O)N[C@@H](CCC(=O)O)C(=O)O)cc3)c2c(=O)[nH]1 [Pemetrexed] + CS(=O)(=O)CCNCc1ccc(-c2ccc3ncnc(Nc4ccc(OCc5cccc(F)c5)c(Cl)c4)c3c2)o1 [Lapatinib] (partner 2 µM)
In short: as §1

Pemetrexed + Vorinostat = compound: Nc1nc2[nH]cc(CCc3ccc(C(=O)N[C@@H](CCC(=O)O)C(=O)O)cc3)c2c(=O)[nH]1 [Pemetrexed] + O=C(CCCCCCC(=O)Nc1ccccc1)NO [Vorinostat] (partner 1 µM)
In short: as §1

Pemetrexed + Olaparib = compound: Nc1nc2[nH]cc(CCc3ccc(C(=O)N[C@@H](CCC(=O)O)C(=O)O)cc3)c2c(=O)[nH]1 [Pemetrexed] + O=C(c1cc(Cc2n[nH]c(=O)c3ccccc23)ccc1F)N1CCN(C(=O)C2CC2)CC1 [Olaparib] (partner 8 µM)
In short: as §1

Cell Line: UMC-11
- relative viability (Idelalisib + Linsitinib; first compound 0.04 µM): 0.912
- relative viability (Idelalisib + Linsitinib; first compound 0.1265 µM): 1.02
- relative viability (Idelalisib + Linsitinib; first compound 0.4 µM): 0.966
- relative viability (Idelalisib + Linsitinib; first compound 1.265 µM): 1.01
- relative viability (Idelalisib + Linsitinib; first compound 4 µM): 1.06
- relative viability (Pemetrexed + Lapatinib; first compound 0.002 µM): 1.24
- relative viability (Pemetrexed + Lapatinib; first compound 0.006325 µM): 0.952
- relative viability (Pemetrexed + Lapatinib; first compound 0.02 µM): 1.11
- relative viability (Pemetrexed + Lapatinib; first compound 0.06325 µM): 1.05
- relative viability (Pemetrexed + Lapatinib; first compound 0.2 µM): 0.746
- relative viability (Pemetrexed + Vorinostat; first compound 0.002 µM): 0.425
- relative viability (Pemetrexed + Vorinostat; first compound 0.006325 µM): 0.355
- relative viability (Pemetrexed + Vorinostat; first compound 0.02 µM): 0.44
- relative viability (Pemetrexed + Vorinostat; first compound 0.06325 µM): 0.347
- relative viability (Pemetrexed + Vorinostat; first compound 0.2 µM): 0.35
- relative viability (Pemetrexed + Olaparib; first compound 0.002 µM): 0.361
- relative viability (Pemetrexed + Olaparib; first compound 0.006325 µM): 0.374
- relative viability (Pemetrexed + Olaparib; first compound 0.02 µM): 0.999
- relative viability (Pemetrexed + Olaparib; first compound 0.06325 µM): 0.441
- relative viability (Pemetrexed + Olaparib; first compound 0.2 µM): 0.358
